In patent US9034846B2, “Use of cyclodextrin for treatment and prevention of bronchial inflammatory diseases” (UNIVERSITE DE LIEGE, priority 2004, dated 2015):
Each block holds one compound with its values, some of them ahead of it.

Key:
[1] = test system: OVA exposed mice; test: Bronchoalveolar lavage differential cell counts, OVA mouse model of asthma; format: in vivo; conditions: for Eosinophils (%) in BAL / Epithelial cells (%) in BAL / Lymphocytes (%) in BAL / Macrophages (%) in BAL / Neutrophils (%) in BAL / Total cells (10^4/ml) in BAL: Table 2
Description: (§1) In order to study modulation of airway inflammation, males BALB/c mice of 6 to 8 weeks old were sensitized by intraperitoneal injection of 10 μg ovalbumin (OVA) (Sigma Aldrich, Schnelldorf, Germany) emulsified in aluminum hydroxyde (AlumInject; Perbio, Erembodegem, Belgium) on days 1 and 8. Mice were subsequently exposed to allergens by daily inhalation of an aerosol of OVA 1%, for 30 minutes, generated by ultrasonic nebulizer (Devilbiss 2000), from day 21 to 27. Mice were subjected to inhalation of β-CD, HP-β-CD HP 1, 7.5, 50 mM and HP-β-CD 50 mM 30 minutes before OVA inhalation. Mice were sacrificed performed on day 28 as previously reported by Cataldo and al in Am. J. Pathol 2002; 161(2):491-498.
Immediately after assessment of airway responsiveness, and 24 hours after the last allergen exposure.
(§2) Mices were sacrificed and a bronchoalveolar lavage was performed using 4×1 ml PBS-EDTA 0.05 mM (Calbiochem, Darmstadt, Germany) as previously described by Cataldo D D, Tournoy K G, Vermaelen K et al. in Am J Pathol 2002; 161(2):491-498. Cells were recovered by gentle manual aspiration. After centrifugation of bronchoalveolar fluid (BALF) (1200 rpm for 10 minutes, at 4° C.), the supernatant was frozen at −80° C. for protein assessment and the cell pellet was resuspended in 1 ml PBS-EDTA 0.05 mM. The differential cell counts were performed on cytocentrifuged preparations (Cytospin) after staining with Diff-Quick (Dade, Belgium).

[2] = test system: OVA exposed mice; test: Peribronchial inflammation score by histology, OVA mouse model; format: in vivo
Description: as §1, with “Mice were subjected to inhalation of β-CD, HP-β-CD HP 1, 7.5, 50 mM and HP-β-CD 50 mM 30 minutes before OVA inhalation.” left out
(§3) After BAL, the thorax was opened and the left main bronchus was clamped. The left lung was excised and frozen immediately at −80° C. for protein and mRNA extraction. The right lung was infused with 4 ml paraformaldehyde 4%, embedded in paraffin and used for histology. Sections of 5 μm thickness were cut off from paraffin and were stained with haematoxylin-eosin. The extent of peribronchial inflammation was estimated by a score calculated by quantification of peribronchial inflammatory cells, as previously described by Cataldo D D, Tournoy K G, Vermaelen K et al. in Am J Pathol 2002; 161(2):491-498. A value of 0 was adjudged when no inflammation was detectable, a value of 1 when there was occasionally inflammatory cells, a value of 2 when most bronchi were surrounded by a thin layer (1 to 5 cells) of inflammatory cells and a value of 3 when most bronchi were surrounded by a thick layer (>5 cells) of inflammatory cells. Since 5-7 randomly selected tissue sections per mouse were scored, inflammation scores are expressed as a mean value and can be compared between groups. After Congo Red staining, the eosinophilic infiltration in the airway walls was quantified by manual count and reported to the perimeter of epithelial basement membrane defining an eosinophilic inflammatory score.

[3] = test system: OVA exposed mice; test: Peribronchial eosinophil infiltration (Congo Red), OVA mouse model; format: in vivo; conditions: after allergen exposure; FIG. 3
Description: as §1, §3

[4] = test system: IL-13; test: IL-13 ELISA in BAL and lung protein extracts, OVA mouse model; format: in vivo
Description: as §1
The left lung was crushed using a Mikro-Dismembrator (Braun Biotech International, Gmbh Melsungen, Germany). For proteins extraction, the crushed lung tissue was incubated overnight at 4° C. in a solution containing 2M urea, 1M NaCl and 50 mM Tris (pH 7.5) and subsequently centrifuged 15 minutes at 16.000×g. The supernatant was stored at −80° C.
Eotaxin and IL-13 levels were assessed using commercial ELISAs (R&D systems, Abingdon, UK). Eotaxin was measured by incubation in a wheel coated with a primary antibody specifically dedicated to the recognition of the protein and after rinsing, a second antibody against eotaxin, coupled with horse radish peroxydase was used to quantify the amounts of eotaxin in the solution
IL-13 was measured by incubation in a wheel coated with a primary antibody specifically dedicated to the recognition of the protein and after rinsing, a second antibody against IL-13, coupled with horse radish peroxydase was used to quantify the amounts of […] in the solution.

[5] = test system: OVA exposed mice; test: Bronchial responsiveness to methacholine (Penh, barometric plethysmograph); format: in vivo, mouse; conditions: FIG. 10
Description: as §1, with “Mice were subjected to inhalation of β-CD, HP-β-CD HP 1, 7.5, 50 mM and HP-β-CD 50 mM 30 minutes before OVA inhalation.” left out
Twenty-four hours after the last allergen exposure, the bronchial hyper responsiveness was determined by measuring the Penh (Enhanced Pause) using a barometric plethysmograph (Emka technologies, Paris) as proposed by Hamelmann, E., et al., Am. J. Respir. Crit. Care Med. 156 (1997) 766-775). The Penh was measured at baseline and […] after the inhalation of increasing doses (25, 50, 75 and 100 mM) of methacholine (Mch).

[6] = test system: mice; test: BAL differential cell counts after exposure to inhaled CRYSMEB (Table 1); format: in vivo, mouse
Description: as §2, with “Belgium). […]” for “Belgium).”

[7] = exposure to aerosolized CRYSMEB 30 min/day during 7 days
[8] = reference therapy, concentration not given

Compound: OC[C@H]1O[C@@H]2O[C@H]3[C@H](O)[C@@H](O)[C@@H](O[C@H]4[C@H](O)[C@@H](O)[C@@H](O[C@H]5[C@H](O)[C@@H](O)[C@@H](O[C@H]6[C@H](O)[C@@H](O)[C@@H](O[C@H]7[C@H](O)[C@@H](O)[C@@H](O[C@H]8[C@H](O)[C@@H](O)[C@@H](O[C@H]1[C@H](O)[C@H]2O)O[C@@H]8CO)O[C@@H]7CO)O[C@@H]6CO)O[C@@H]5CO)O[C@@H]4CO)O[C@@H]3CO [β-CD, β-cyclodextrin]
number of eosinophils in BAL ([1]; after allergen exposure, concentration not given, FIG. 1): tendency to increase
peribronchial inflammation score ([2]; concentration not given, FIG. 2): did not reduce
peribronchial eosinophil infiltration [3]: decrease reached statistical significance
IL-13 levels in BAL ([4]; FIG. 7b): increased

cellular composition of the bronchoalveolar lavage [6, 7]: not significantly altered
eosinophil and neutrophil counts in BAL [6, 7]: no differences
Eosinophils (%) in BAL ([6]; inhaled 20 mM): 0.0375 ± 0.0375%
Epithelial cells (%) in BAL ([6]; inhaled 20 mM): 29.9 ± 5.909%
Lymphocytes (%) in BAL ([6]; inhaled 20 mM): 0.425 ± 0.1485%
Macrophages (%) in BAL ([6]; inhaled 20 mM): 69.5 ± 5.956%
Neutrophils (%) in BAL ([6]; inhaled 20 mM): 0.0375 ± 0.1061%
Eosinophils (%) in BAL ([6]; inhaled 50 mM): 0.1125 ± 0.0789%
Epithelial cells (%) in BAL ([6]; inhaled 50 mM): 36.1375 ± 4.52%
Lymphocytes (%) in BAL ([6]; inhaled 50 mM): 0.275 ± 0.1161%
Macrophages (%) in BAL ([6]; inhaled 50 mM): 63.1625 ± 4.695%
Neutrophils (%) in BAL ([6]; inhaled 50 mM): 0.2 ± 0.3505%
Eosinophils (%) in BAL ([6]; inhaled 75 mM): 0.0375 ± 0.0375%
Epithelial cells (%) in BAL ([6]; inhaled 75 mM): 30.8875 ± 1.349%
Lymphocytes (%) in BAL ([6]; inhaled 75 mM): 0.075 ± 0.0491%
Macrophages (%) in BAL ([6]; inhaled 75 mM): 68.9 ± 1.334%
Neutrophils (%) in BAL ([6]; inhaled 75 mM): 0.0375 ± 0.1061%
Compound: 2-O-methyl βcyclodextrin [CRYSMEB]
Bronchoalveolar lavage eosinophilia ([1]; Example 2, treated groups vs placebo): significantly decreased
Eosinophils (%) in BAL ([1]; 10 mM): 8.84 ± 2.946 %
Epithelial cells (%) in BAL ([1]; 10 mM): 36.83 ± 5.644%
Lymphocytes (%) in BAL ([1]; 10 mM): 0.214 ± 0.1079%
Macrophages (%) in BAL ([1]; 10 mM): 52.714 ± 6.49%
Neutrophils (%) in BAL ([1]; 10 mM): 1.26 ± 0.4587%
Total cells (10^4/ml) in BAL ([1]; 10 mM): 131.93 ± 33.637 10^4/ml
peribronchial inflammation score ([2]; 20 mM, compared to placebo, FIG. 9A): decreased inflammation score
methacholine-induced Penh increase ([5]; 10 mM inhalation): reduced
responsiveness to methacholine ([5]; after allergen exposure, extent comparable to fluticasone): significantly reduced
levels of IL-13 in whole lung protein extracts ([4]; FIG. 11): significantly decreased

Compound: C[C@@H]1C[C@H]2[C@@H]3C[C@H](F)C4=CC(=O)C=C[C@]4(C)[C@@]3(F)[C@@H](O)C[C@]2(C)[C@@]1(O)C(=O)SCF [Fluticasone, reference compound]
Eosinophils (%) in BAL [1, 8]: 32.92 ± 7.306 %
Epithelial cells (%) in BAL [1, 8]: 22.85 ± 5.343%
Lymphocytes (%) in BAL [1, 8]: 1.68 ± 0.7115%
Macrophages (%) in BAL [1, 8]: 40.52 ± 3.122%
Neutrophils (%) in BAL [1, 8]: 1.85 ± 1.093%
Total cells (10^4/ml) in BAL [1, 8]: 75.92 ± 11.922 10^4/ml
